Experiments:
Type in all cases: in vivo
[1] = system: Beet Armyworm (Spodoptera exigua, LAPHEG); assay: Bioassay on Beet Armyworm (BAW), 128-well diet tray assay; settings: 168 h, 50 μg/cm^2 on artificial diet, second instar larvae, five to seven days, 25° C., read-out: BAW % Control (or Mortality) rating
Experimental: (§1) Example A: Bioassays on Beet Armyworm (Spodoptera exigua, LAPHEG) (“BAW”), Corn Earworm (Helicoverpa zea, HELIZE) (“CEW”), and Cabbage Looper (Trichoplusia ni, TRIPNI) (“CL”)
(§2) Certain molecules disclosed in this document were tested against BAW, CEW, and CL using procedures described in the following examples. In the reporting of the results, the “BAW, CEW, & CL Rating Table” was used (See Table Section).
Bioassays on BAW were conducted using a 128-well diet tray assay. one to five second instar BAW larvae were placed in each well (3 mL) of the diet tray that had been previously filled with 1 mL of artificial diet to which 50 μg/cm^2 of the test molecule (dissolved in 50 μL of 90:10 acetone-water mixture) had been applied (to each of eight wells) and then allowed to dry. Trays were covered with a clear self-adhesive cover and held at 25° C., 14:10 light-dark for five to seven days. Percent mortality was recorded for the larvae in each well; activity in the eight wells was then averaged. The results are indicated in the table entitled “Table ABC: Biological Results” (See Table Section).

[2] = system: Cabbage Looper (Trichoplusia ni, TRIPNI); assay: Bioassay on Cabbage Looper (CL), 128-well diet tray assay; settings: 168 h, 50 μg/cm^2 on artificial diet, second instar larvae, five to seven days, 25° C., read-out: CL % Control (or Mortality) rating
Experimental: as §1, §2
Bioassays on CL were conducted using a 128-well diet tray assay. one to five second instar CL larvae were placed in each well (3 mL) of the diet tray that had been previously filled with 1 mL of artificial diet to which 50 μg/cm^2 of the test molecule (dissolved in 50 μL of 90:10 acetone-water mixture) had been applied (to each of eight wells) and then allowed to dry. Trays were covered with a clear self-adhesive cover and held at 25° C., 14:10 light-dark for five to seven days. Percent mortality was recorded for the larvae in each well; activity in the eight wells was then averaged. The results are indicated in the table entitled “Table ABC: Biological Results” (See Table Section).

[3] = system: Corn Earworm (Helicoverpa zea, HELIZE); assay: Bioassay on Corn Earworm (CEW), 128-well diet tray assay; settings: 168 h, 50 μg/cm^2 on artificial diet, second instar larvae, five to seven days, 25° C., read-out: CEW % Control (or Mortality) rating
Experimental: as §1, §2
Bioassays on CEW were conducted using a 128-well diet tray assay. one to five second instar CEW larvae were placed in each well (3 mL) of the diet tray that had been previously filled with 1 mL of artificial diet to which 50 μg/cm^2 of the test molecule (dissolved in 50 μL of 90:10 acetone-water mixture) had been applied (to each of eight wells) and then allowed to dry. Trays were covered with a clear self-adhesive cover, and held at 25° C., 14:10 light-dark for five to seven days. Percent mortality was recorded for the larvae in each well; activity in the eight wells was then averaged. The results are indicated in the table entitled “Table ABC: Biological Results” (See Table Section).

[4] = system: Yellow Fever Mosquito (Aedes aegypti, AEDSAE); assay: Bioassay on Yellow Fever Mosquito (YFM) larvae, 96-well plate; settings: about 1 day-old larvae, 4000 ppm DMSO master plate diluted, graded after 3 days
Experimental: Example C: Bioassays on Yellow Fever Mosquito (Aedes aegypti, AEDSAE) (“YFM”)
Certain molecules disclosed in this document were tested against YFM using procedures described in the following paragraph. In the reporting of the results, the “YFM Rating Table” was used (See Table Section).
Master plates containing 400 μg of a molecule dissolved in 100 μL of dimethyl sulfoxide (DMSO) (equivalent to a 4000 ppm solution) are used. A master plate of assembled molecules contains 15 μL per well. To this plate, 135 μL of a 90:10 water:acetone mixture is added to each well. A robot (Biomek® NXP Laboratory Automation Workstation) is programmed to dispense 15 μL aspirations from the master plate into an empty 96-well shallow plate (“daughter” plate). There are 6 reps (“daughter” plates) created per master. The created daughter plates are then immediately infested with YFM larvae.
The day before plates are to be treated, mosquito eggs are placed in Millipore water containing liver powder to begin hatching (4 g. into 400 mL). After the daughter plates are created using the robot, they are infested with 220 μL of the liver powder/larval mosquito mixture (about 1 day-old larvae). After plates are infested with mosquito larvae, a non-evaporative lid is used to cover the plate to reduce drying. Plates are held at room temperature for 3 days prior to grading. After 3 days, each well is observed and scored based on mortality. The results are indicated in the table entitled “Table ABC: Biological Results” (See Table Section).

Row | SMILES | mortality at 50 µg/cm2 [1] [%] | mortality at 50 µg/cm2 [2] [%] | mortality at 50 µg/cm2 [3] [%] | YFM % Control (or Mortality) rating [4]
1 | Cc1cccc(-n2ccnc2NC(=O)Nc2ccc(-c3ncn(-c4ccc(OC(F)(F)F)cc4)n3)cc2)c1 [F24, 1-(1-(m-Tolyl)-1H-imidazol-2-yl)-3-(4-(1-(4-(trifluoromethoxy)phenyl)-1H-1,2,4-triazol-3-yl)phenyl)urea] | 50 to 100 | 50 to 100 | 50 to 100 | –
2 | CC(C)c1cccc(-n2ccnc2NC(=O)Nc2ccc(-c3ncn(-c4ccc(OC(F)(F)F)cc4)n3)cc2)c1 [F25, 1-(1-(3-Isopropylphenyl)-1H-imidazol-2-yl)-3-(4-(1-(4-(trifluoromethoxy)phenyl)-1H-1,2,4-triazol-3-yl)phenyl)urea] | 50 to 100 | 50 to 100 | 50 to 100 | –
3 | CCc1cccc(-n2ccnc2NC(=O)Nc2ccc(-c3ncn(-c4ccc(OC(F)(F)F)cc4)n3)cc2)c1 [F26, 1-(1-(3-Ethylphenyl)-1H-imidazol-2-yl)-3-(4-(1-(4-(trifluoromethoxy)phenyl)-1H-1,2,4-triazol-3-yl)phenyl)urea] | 50 to 100 | 50 to 100 | 50 to 100 | –
4 | O=C(Nc1ccc(-c2ncn(-c3ccc(OC(F)(F)F)cc3)n2)cc1)Nc1nccn1-c1cccc(Cl)c1 [F27, 1-(1-(3-Chlorophenyl)-1H-imidazol-2-yl)-3-(4-(1-(4-(trifluoromethoxy)phenyl)-1H-1,2,4-triazol-3-yl)phenyl)urea] | 50 to 100 | 50 to 100 | 50 to 100 | –
5 | Cc1ccc(-n2ccnc2NC(=O)Nc2ccc(-c3ncn(-c4ccc(OC(F)(F)F)cc4)n3)cc2)cc1 [F29, 1-(1-(p-Tolyl)-1H-imidazol-2-yl)-3-(4-(1-(4-(trifluoromethoxy)phenyl)-1H-1,2,4-triazol-3-yl)phenyl)urea] | 50 to 100 | 50 to 100 | 50 to 100 | –
6 | COc1ccc(-n2ccnc2NC(=O)Nc2ccc(-c3ncn(-c4ccc(OC(F)(F)F)cc4)n3)cc2)cc1 [F30, 1-(1-(4-Methoxyphenyl)-1H-imidazol-2-yl)-3-(4-(1-(4-(trifluoromethoxy)phenyl)-1H-1,2,4-triazol-3-yl)phenyl)urea] | 50 to 100 | 50 to 100 | 50 to 100 | –
7 | O=C(Nc1ccc(-c2ncn(-c3ccc(OC(F)(F)F)cc3)n2)cc1)Nc1nccn1-c1ccccn1 [F31, 1-(1-(Pyridin-2-yl)-1H-imidazol-2-yl)-3-(4-(1-(4-(trifluoromethoxy)phenyl)-1H-1,2,4-triazol-3-yl)phenyl)urea] | 50 to 100 | 50 to 100 | 50 to 100 | –
8 | O=C(Nc1ccc(-c2ncn(-c3ccc(OC(F)(F)F)cc3)n2)cc1)Nc1nccn1-c1ccncc1 [F33, 1-(1-(Pyridin-4-yl)-1H-imidazol-2-yl)-3-(4-(1-(4-(trifluoromethoxy)phenyl)-1H-1,2,4-triazol-3-yl)phenyl)urea] | 50 to 100 | 50 to 100 | 50 to 100 | –
9 | CC(C)c1ccccc1-n1ccnc1NC(=O)Nc1ccc(-c2ncn(-c3ccc(OC(F)(F)C(F)(F)F)cc3)n2)cc1 [F34, 1-(1-(2-isopropylphenyl)-1H-imidazol-2-yl)-3-(4-(1-(4-(perfluoroethoxy)phenyl)-1H-1,2,4-triazol-3-yl)phenyl)urea] | 50 to 100 | 50 to 100 | 50 to 100 | D (No activity noticed in this bioassay)
10 | O=C(Nc1ccc(-c2ncn(-c3ccc(OC(F)(F)C(F)(F)F)cc3)n2)cc1)Nc1nccn1-c1cccc(Cl)c1 [F35, 1-(1-(3-Chlorophenyl)-1H-imidazol-2-yl)-3-(4-(1-(4-(perfluoroethoxy)phenyl)-1H-1,2,4-triazol-3-yl)phenyl)urea] | 50 to 100 | 50 to 100 | 50 to 100 | D (No activity noticed in this bioassay)
11 | Cc1ccc(-c2nonc2NC(=O)Nc2ccc(-c3ncn(-c4ccc(OC(F)(F)F)cc4)n3)cc2)c(C)c1 [F36, 1-(4-(2,4-Dimethylphenyl)-1,2,5-oxadiazol-3-yl)-3-(4-(1-(4-(trifluoromethoxy)phenyl)-1H-1,2,4-triazol-3-yl)phenyl)urea] | 50 to 100 | 50 to 100 | 50 to 100 | A (80-100)
12 | O=C(Nc1ccc(-c2ncn(-c3ccc(OC(F)(F)F)cc3)n2)cc1)Nc1nonc1-c1ccccc1 [F37, 1-(4-Phenyl-1,2,5-oxadiazol-3-yl)-3-(4-(1-(4-(trifluoromethoxy)phenyl)-1H-1,2,4-triazol-3-yl)phenyl)urea] | 50 to 100 | 50 to 100 | 50 to 100 | A (80-100)
13 | COc1ccccc1-c1nonc1NC(=O)Nc1ccc(-c2ncn(-c3ccc(OC(F)(F)F)cc3)n2)cc1 [F38, 1-(4-(2-Methoxyphenyl)-1,2,5-oxadiazol-3-yl)-3-(4-(1-(4-(trifluoromethoxy)phenyl)-1H-1,2,4-triazol-3-yl)phenyl)urea] | 50 to 100 | 50 to 100 | 50 to 100 | A (80-100)
14 | COc1ccc(-c2nonc2NC(=O)Nc2ccc(-c3ncn(-c4ccc(OC(F)(F)F)cc4)n3)cc2)cc1 [F39, 1-(4-(4-Methoxyphenyl)-1,2,5-oxadiazol-3-yl)-3-(4-(1-(4-(trifluoromethoxy)phenyl)-1H-1,2,4-triazol-3-yl)phenyl)urea] | 0 to 50 | 50 to 100 | 50 to 100 | D (No activity noticed in this bioassay)
15 | Cc1cc(C)c(-c2nonc2NC(=O)Nc2ccc(-c3ncn(-c4ccc(OC(F)(F)F)cc4)n3)cc2)c(C)c1 [F40, 1-(4-Mesityl-1,2,5-oxadiazol-3-yl)-3-(4-(1-(4-(trifluoromethoxy)phenyl)-1H-1,2,4-triazol-3-yl)phenyl)urea] | 50 to 100 | 50 to 100 | 50 to 100 | B (More than 0-Less than 80)
16 | COc1cccc(-c2nonc2NC(=O)Nc2ccc(-c3ncn(-c4ccc(OC(F)(F)F)cc4)n3)cc2)c1 [F41, 1-(4-(3-Methoxyphenyl)-1,2,5-oxadiazol-3-yl)-3-(4-(1-(4-(trifluoromethoxy)phenyl)-1H-1,2,4-triazol-3-yl)phenyl)urea] | 50 to 100 | 50 to 100 | 50 to 100 | B (More than 0-Less than 80)
17 | O=C(NCCc1ccc(-c2ncn(-c3ccc(OC(F)(F)F)cc3)n2)cc1)Nc1ncc(-c2ccccc2)o1 [F52, 1-(5-phenyloxazol-2-yl)-3-(4-(1-(4-(trifluoromethoxy)phenyl)-1H-1,2,4-triazol-3-yl)phenethyl)urea] | 50 to 100 | 50 to 100 | 0 | –
